From the supplement of paper PMC11061612

What was measured:
Paclitaxel = compound: CC(=O)O[C@H]1C(=O)[C@@]2(C)[C@H]([C@H](OC(=O)c3ccccc3)[C@]3(O)C[C@H](OC(=O)[C@H](O)[C@@H](NC(=O)c4ccccc4)c4ccccc4)C(C)=C1C3(C)C)[C@]1(OC(C)=O)CO[C@@H]1C[C@@H]2O [Paclitaxel]; conditions: max 3 µM
Method in brief: (§1)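 Following 24 hours at 37°C and 5% CO2, cancer cell lines in 1536-well plates with 7.5 μl DMEM/F12 or RPMI and 10% FBS were dosed for 72 hours, final DMSO typically being 0.2%. CellTiter-Glo 2.0 luminescence, scaled between blank-well and DMSO-well means, gave the viability readout. Dose responses were fitted to a two-parameter logistic curve with a non-linear mixed effects model, and the single-agent IC50 was derived from this fit.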

AZD5153 = compound: COc1nnc2ccc(N3CCC(c4ccc(OCCN5CCN(C)C(=O)[C@H]5C)cc4)CC3)nn12 [AZD5153]; conditions: max 1 µM
Method in brief: as §1

AZD5991 = compound: Cc1c2c(nn1C)CSCc1cc(n(C)n1)CSc1cc(c3ccccc3c1)OCCCc1c(C(=O)O)n(C)c3c-2c(Cl)ccc13 [AZD5991]; conditions: max 1 µM
Method in brief: as §1

Alisertib = compound: COc1cc(Nc2ncc3c(n2)-c2ccc(Cl)cc2C(c2c(F)cccc2OC)=NC3)ccc1C(=O)O [Alisertib]; conditions: max 10 µM
Method in brief: as §1

Savolitinib = compound: C[C@@H](c1ccc2nccn2c1)n1nnc2ncc(-c3cnn(C)c3)nc21 [Savolitinib]; conditions: max 1 µM
Method in brief: as §1

Doxorubicin = compound: COc1cccc2c1C(=O)c1c(O)c3c(c(O)c1C2=O)C[C@@](O)(C(=O)CO)C[C@@H]3O[C@H]1C[C@H](N)[C@H](O)[C@H](C)O1 [Doxorubicin]; conditions: max 1 µM
Method in brief: as §1

SG3199 = compound: CC1=CN2[C@@H](C1)C=NC3=CC(=C(C=C3C2=O)OC)OCCCCCOC4=C(C=C5C(=C4)N=C[C@@H]6CC(=CN6C5=O)C)OC [SG3199]; conditions: max 0.001 µM
Method in brief: as §1

Taselisib = compound: Cc1nc(-c2cn3c(n2)-c2ccc(-c4cnn(C(C)(C)C(N)=O)c4)cc2OCC3)n(C(C)C)n1 [Taselisib]; conditions: max 10 µM
Method in brief: as §1

Crizotinib = compound: C[C@@H](Oc1cc(-c2cnn(C3CCNCC3)c2)cnc1N)c1c(Cl)ccc(F)c1Cl [Crizotinib]; conditions: max 10 µM
Method in brief: as §1

AZD7648 = compound: Cc1cc2ncnn2cc1Nc1ncc2c(n1)n(C1CCOCC1)c(=O)n2C [AZD7648]; conditions: max 10 µM
Method in brief: as §1

5-Fluorouracil = compound: O=c1[nH]cc(F)c(=O)[nH]1 [5-Fluorouracil]; conditions: max 20 µM
Method in brief: as §1

Trametinib = compound: CC(=O)Nc1cccc(-n2c(=O)n(C3CC3)c(=O)c3c(Nc4ccc(I)cc4F)n(C)c(=O)c(C)c32)c1 [Trametinib]; conditions: max 1 µM
Method in brief: as §1

Dasatinib = compound: CC1=C(C(=CC=C1)Cl)NC(=O)C2=CN=C(S2)NC3=CC(=NC(=N3)C)N4CCN(CC4)CCO [Dasatinib]; conditions: max 2 µM
Method in brief: as §1

Lapatinib = compound: CS(=O)(=O)CCNCc1ccc(-c2ccc3ncnc(Nc4ccc(OCc5cccc(F)c5)c(Cl)c4)c3c2)o1 [Lapatinib]; conditions: max 10 µM
Method in brief: as §1

Olaparib = compound: O=C(c1cc(Cc2n[nH]c(=O)c3ccccc23)ccc1F)N1CCN(C(=O)C2CC2)CC1 [Olaparib]; conditions: max 10 µM
Method in brief: as §1

AZD0156 = compound: CN(C)CCCOc1ccc(-c2ccc3ncc4c(c3c2)n(C2CCOCC2)c(=O)n4C)cn1 [AZD0156]; conditions: max 3 µM
Method in brief: as §1

Palbociclib = compound: CC(=O)c1c(C)c2cnc(Nc3ccc(N4CCNCC4)cn3)nc2n(C2CCCC2)c1=O [Palbociclib]; conditions: max 10 µM
Method in brief: as §1

AZD2811 = compound: CCN(CCO)CCCOc1ccc2c(Nc3cc(CC(=O)Nc4cccc(F)c4)[nH]n3)ncnc2c1 [AZD2811]; conditions: max 1 µM
Method in brief: as §1

[1] = compound: O=C(Nc1ccc2[nH]nc(-c3ccncc3)c2c1)[C@@H]1CCN(CC(=O)N2CCN(c3ccc(-c4ncccn4)cc3)CC2)C1; conditions: max 5 µM
Method in brief: as §1

Gefitinib = compound: COc1cc2ncnc(Nc3ccc(F)c(Cl)c3)c2cc1OCCCN1CCOCC1 [Gefitinib]; conditions: max 10 µM
Method in brief: as §1

Prexasertib = compound: COc1cccc(OCCCN)c1-c1cc(Nc2cnc(C#N)cn2)n[nH]1 [Prexasertib]; conditions: max 1 µM
Method in brief: as §1

SN-38 = compound: CCc1c2c(nc3ccc(O)cc13)-c1cc3c(c(=O)n1C2)COC(=O)[C@]3(O)CC [SN-38]; conditions: max 0.3 µM
Method in brief: as §1

Selumetinib = compound: Cn1cnc2c(F)c(Nc3ccc(Br)cc3Cl)c(C(=O)NOCCO)cc21 [Selumetinib]; conditions: max 10 µM
Method in brief: as §1

SRA737 = compound: N#Cc1cnc(Nc2cc(NC[C@H]3CNCCO3)c(C(F)(F)F)cn2)cn1 [SRA737]; conditions: max 10 µM
Method in brief: as §1

AZD8186 = compound: C[C@@H](Nc1cc(F)cc(F)c1)c1cc(C(=O)N(C)C)cc2c(=O)cc(N3CCOCC3)oc12 [AZD8186]; conditions: max 10 µM
Method in brief: as §1

MK-2206 = compound: NC1(c2ccc(-c3nc4ccn5c(=O)[nH]nc5c4cc3-c3ccccc3)cc2)CCC1 [MK-2206]; conditions: max 10 µM
Method in brief: as §1

AZD1390 = compound: CC(C)n1c(=O)n(C)c2cnc3cc(F)c(-c4ccc(OCCCN5CCCCC5)nc4)cc3c21 [AZD1390]; conditions: max 0.3 µM
Method in brief: as §1

AZD1775 = compound: C=CCn1c(=O)c2cnc(Nc3ccc(N4CCN(C)CC4)cc3)nc2n1-c1cccc(C(C)(C)O)n1 [AZD1775]; conditions: max 3 µM
Method in brief: as §1

Etoposide = compound: COc1cc([C@@H]2c3cc4c(cc3[C@@H](O[C@@H]3O[C@@H]5CO[C@@H](C)O[C@H]5[C@H](O)[C@H]3O)[C@H]3COC(=O)[C@H]23)OCO4)cc(OC)c1O [Etoposide]; conditions: max 10 µM
Method in brief: as §1

AZD6738 = compound: C[C@@H]1COCCN1C2=NC(=NC(=C2)C3(CC3)[S@](=N)(=O)C)C4=C5C=CNC5=NC=C4 [AZD6738]; conditions: max 10 µM
Method in brief: as §1

Gemcitabine = compound: Nc1ccn([C@@H]2O[C@H](CO)[C@@H](O)C2(F)F)c(=O)n1 [Gemcitabine]; conditions: max 0.3 µM
Method in brief: as §1

Venetoclax = compound: CC1(C)CCC(CN2CCN(c3ccc(C(=O)NS(=O)(=O)c4ccc(NCC5CCOCC5)c([N+](=O)[O-])c4)c(Oc4cnc5[nH]ccc5c4)c3)CC2)=C(c2ccc(Cl)cc2)C1 [Venetoclax]; conditions: max 1 µM
Method in brief: as §1

Carboplatin = compound: C1CC(C1)(C(=O)[O-])C(=O)[O-].N.N.[Pt+2] [Carboplatin]; conditions: max 10 µM
Method in brief: as §1

AZD5363 = compound: C1CN(CCC1(C(=O)N[C@@H](CCO)C2=CC=C(C=C2)Cl)N)C3=NC=NC4=C3C=CN4 [AZD5363]; conditions: max 10 µM
Method in brief: as §1

AZD4320 = compound: CN(CC[C@H](CSC1=CC=CC=C1)NC2=C(C=C(C=C2)S(=O)(=O)NC(=O)C3=CC=C(C=C3)N4CCC(CC4)[C@H](C5=CC=CC=C5C6=CC=C(C=C6)Cl)O)S(=O)(=O)C(F)(F)F)CCO [AZD4320]; conditions: max 1 µM
Method in brief: as §1

Cell Line | IC50, cell viability 72 h (Paclitaxel) [nM] | IC50, cell viability 72 h (AZD5153) [nM] | IC50, cell viability 72 h (AZD5991) [nM] | IC50, cell viability 72 h (Alisertib) [nM] | IC50, cell viability 72 h (Savolitinib) [nM] | IC50, cell viability 72 h (Doxorubicin) [nM] | IC50, cell viability 72 h (SG3199) [nM] | IC50, cell viability 72 h (Taselisib) [nM] | IC50, cell viability 72 h (Crizotinib) [nM] | IC50, cell viability 72 h (AZD7648) [nM] | IC50, cell viability 72 h (5-Fluorouracil) [nM] | IC50, cell viability 72 h (Trametinib) [nM] | IC50, cell viability 72 h (Dasatinib) [nM] | IC50, cell viability 72 h (Lapatinib) [nM] | IC50, cell viability 72 h (Olaparib) [nM] | IC50, cell viability 72 h (AZD0156) [nM] | IC50, cell viability 72 h (Palbociclib) [nM] | IC50, cell viability 72 h (AZD2811) [nM] | IC50, cell viability 72 h [1] [nM] | IC50, cell viability 72 h (Gefitinib) [nM] | IC50, cell viability 72 h (Prexasertib) [nM] | IC50, cell viability 72 h (SN-38) [nM] | IC50, cell viability 72 h (Selumetinib) [nM] | IC50, cell viability 72 h (SRA737) [nM] | IC50, cell viability 72 h (AZD8186) [nM] | IC50, cell viability 72 h (MK-2206) [nM] | IC50, cell viability 72 h (AZD1390) [nM] | IC50, cell viability 72 h (AZD1775) [nM] | IC50, cell viability 72 h (Etoposide) [nM] | IC50, cell viability 72 h (AZD6738) [nM] | IC50, cell viability 72 h (Gemcitabine) [nM] | IC50, cell viability 72 h (Venetoclax) [nM] | IC50, cell viability 72 h (Carboplatin) [nM] | IC50, cell viability 72 h (AZD5363) [nM] | IC50, cell viability 72 h (AZD4320) [nM]
NTERA-2-cl-D1 (Other Solid Carcinomas) | 415 | 532 | > 1000 | 453 | > 1000 | 23.6 | > 1 | > 10000 | > 10000 | > 10000 | > 20000 | > 1000 | > 2000 | > 10000 | > 10000 | > 3000 | > 10000 | > 1000 | > 5000 | > 10000 | > 1000 | 5.92 | > 10000 | > 10000 | > 10000 | > 10000 | > 300 | > 3000 | > 10000 | > 10000 | > 300 | > 1000 | > 10000 | > 10000 | > 1000
OVKATE (Ovarian Carcinoma) | > 3000 | > 1000 | > 1000 | > 10000 | > 1000 | > 1000 | > 1 | > 10000 | > 10000 | > 10000 | > 20000 | > 1000 | > 2000 | > 10000 | > 10000 | > 3000 | > 10000 | > 1000 | > 5000 | > 10000 | > 1000 | > 300 | > 10000 | > 10000 | > 10000 | > 10000 | > 300 | > 3000 | > 10000 | > 10000 | > 300 | > 1000 | > 10000 | > 10000 | > 1000
